From PubChem BioAssay AID1329 (NMMLSC, 2008) come the findings set out here.

SMILES strings stand for the structures. The source made the active and inactive calls. How the calls were made is not given here.

Sequence of Induced myeloid leukemia cell differentiation protein Mcl-1 (Homo sapiens) (Q07820 whole entry, looked up): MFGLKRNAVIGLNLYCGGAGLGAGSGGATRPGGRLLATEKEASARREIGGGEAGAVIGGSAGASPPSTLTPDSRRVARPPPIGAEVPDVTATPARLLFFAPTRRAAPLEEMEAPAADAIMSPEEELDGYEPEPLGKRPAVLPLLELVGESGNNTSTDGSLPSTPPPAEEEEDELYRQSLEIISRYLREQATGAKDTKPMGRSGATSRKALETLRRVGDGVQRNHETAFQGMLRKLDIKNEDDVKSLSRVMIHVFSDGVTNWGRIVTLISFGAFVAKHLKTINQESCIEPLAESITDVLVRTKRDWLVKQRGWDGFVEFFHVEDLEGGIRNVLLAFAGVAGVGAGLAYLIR

The experiment concerns the target Induced myeloid leukemia cell differentiation protein Mcl-1 (Homo sapiens) (UniProt Q07820). As to the kind of experiment: modulators of Bim peptide binding to Mcl-1, dose response, biochemical, bead-based flow cytometry, multiplexed, human (AID 1329). The conditions noted are these: Bim peptide-Mcl-1 binding, MCF. (A flow cytometer gives signals particle by particle.)
Take `N/C(=N\N=C/c1ccc(Br)cc1)N/N=C\c1ccc(Br)cc1`: the percent span result is “inactive”.

As to `CCC(=O)OCCNc1cc(Sc2nc3ccccc3[nH]2)c2nonc2c1[N+](=O)[O-]`, the percent span result is “inactive”.

For the molecule `O=C1c2ccccc2C(=O)N1CN(C(=O)COc1ccc(Cl)cc1Cl)c1cccc(F)c1`, the percent span result was “inactive”.

Turning to `CCOC(=O)C1=C(Cc2ccc(OC)cc2)C(=O)c2ccccc2C1=O`, the percent span result was “inactive”.

Take `Cc1ccc(N=C2NC(=O)/C(=C/C=C/c3ccco3)S2)cc1`: the percent span entry is “inactive”.

In the case of `COc1cc(/C=C2\S/C(=N/S(=O)(=O)c3ccccc3)NC2=O)c([N+](=O)[O-])cc1OC`, the percent span result was “inactive”.

Consider `CN(CCCOc1ccccc1Br)Cc1ccccc1`, for which the percent span entry was “inactive”.

For `COc1ccc(S(=O)(=O)NCCSc2ccc(Cl)cc2)cc1OC`, the percent span entry was “inactive”.

In the case of `CN(C)CCNC(=O)C(=O)C1C(=O)Nc2ccccc21` (stereo unspecified), the percent span result was “inactive”.

Regarding `O=C(CSc1nnc(Cc2ccccc2)o1)NCc1ccco1`, the percent span result is “inactive”.

In the case of `O=C1C(Cl)=C(N2CCN(c3ccccc3[N+](=O)[O-])CC2)C(=O)c2ccccc21`, the percent span entry was “inactive”.

In the case of `Cc1cc(C)cc(NS(=O)(=O)c2ccc3c(c2)c(=O)n(C)c(=O)n3C)c1`, the percent span entry is “inactive”.

Consider `OC(COc1ccc2ccccc2c1)CN1CCCC1` (stereo unspecified), for which the percent span result is “inactive”.

With `O=C(/C=C/c1ccc(-c2ccccc2[N+](=O)[O-])o1)c1ccccc1`, the percent span result was “inactive”.

Regarding `O=C1CSc2ccc(C(=O)Nc3cccc(S(=O)(=O)Nc4ccc(Br)cc4)c3)cc2N1`, the percent span entry is “inactive”.

As for `Cc1ccc(/C=C2/NC(=O)N(Cc3ccc(Br)cc3)C2=O)o1`, the percent span result was “inactive”.

`Clc1nssc1=Nc1ccccc1`: the percent span entry is “inactive”.

Turning to `COc1ccc(NC(=O)Cc2c(F)cccc2Cl)c(OC)c1`, the percent span entry was “inactive”.

Regarding `CN(C)c1cccc(NC(=O)C2(C)CC2(Cl)Cl)c1` (stereo unspecified), the percent span result is “inactive”.

Turning to `CN(CC(=O)O/N=C(\N)c1ccc([N+](=O)[O-])cc1)S(=O)(=O)c1ccccc1`, the percent span entry was “inactive”.

Consider `CN(C)C(=O)N1CCC(C(=O)NC2CCCCCCC2)CC1`, for which the percent span result was “inactive”.

Consider `CCN1C(=O)/C(=C\C=C2/C=CC=CN2CC)SC1=S`, for which the percent span entry is “inactive”.

Take `COc1ccccc1Oc1ccc2c(c1)C(=O)N(c1ccccc1)C2=O`: the percent span result was “inactive”.

Turning to `CCCc1nnc2n1N=C(c1ccc(-c3cc(Cl)ccc3Cl)o1)CS2`, the percent span result was “inactive”.

Consider `CC1Cc2ccccc2N1C(=O)c1ccc(N2CCCC2)c([N+](=O)[O-])c1` (stereo unspecified), for which the percent span entry was “inactive”.

Regarding `O=C(/C=C/c1ccc(-c2ccccc2)o1)c1ccccc1`, the percent span entry was “inactive”.

`CCn1c(SCC(=O)Nc2ccccc2-c2ccccc2)nnc1-c1ccoc1C`: the percent span result was “inactive”.

For `Cc1ccc(/C=C/C(=O)c2ccccc(=O)c2O)cc1C`, the percent span entry was “inactive”.

Regarding `Cc1ccc(-c2cc(C(=O)Nc3nccs3)c3ccccc3n2)o1`, the percent span entry was “inactive”.

Consider `CCOC(=O)CSc1nnc(-c2cccc(Cl)c2)n1CC`, for which the percent span result is “inactive”.

Take `O=C1C(Cl)=C(Nc2ccccc2O)C(=O)N1c1ccccc1`: the percent span result is “inactive”.

Turning to `Cc1cc(C)c2nc3nc(C)c(C)cc3c(N)c2c1`, the percent span entry is “inactive”.

For `Cc1ccc(-n2c(CSc3nc(C)cc(C)n3)nnc2SCC(=O)NCc2ccco2)cc1`, the percent span entry was “inactive”.

Regarding `CC(NC(=O)Nc1ccccn1)N1C(=O)C2C3C=CC(C3)C2C1=O` (stereo unspecified), the percent span entry is “inactive”.

For the molecule `CC(C)(C)c1nc(NCCN2CCOCC2)c2nnn(Cc3ccccc3Cl)c2n1`, the percent span result is “inactive”.

As to `Cc1ccnc(NS(=O)(=O)c2ccc(NS(=O)(=O)c3cccs3)cc2)n1`, the percent span result is “inactive”.

Turning to `Cc1ccc(-c2ccc(/C=C3\SC(N4CCOCC4)=NC3=O)o2)cc1`, the percent span entry is “inactive”.

For `Cc1cccc(NC(=S)N2CCn3cccc3C2c2cccnc2)c1` (stereo unspecified), the percent span entry is “inactive”.

With `COCCNC(=O)CN1CCC(NC(=O)Nc2ccccc2)CC1`, the percent span entry was “inactive”.

For the molecule `COc1ccc2oc(-c3ccccc3)c(C(=O)N3CCOCC3)c2c1`, the percent span entry was “inactive”.

With `CCOC(=O)C1=C(Cc2ccc(C)cc2)C(=O)c2ccccc2C1=O`, the percent span result is “inactive”.

For the molecule `CC1Cc2ccccc2N1C(=O)CSc1nnnn1-c1ccc2c(c1)OCCO2` (stereo unspecified), the percent span entry was “inactive”.

As to `Cc1cc(-c2nnc(CCC(=O)NC(C)c3cccc4ccccc34)o2)no1` (stereo unspecified), the percent span entry was “inactive”.

Regarding `Cc1ccc(-c2cc(-c3ccc(C)o3)nc(N)c2C#N)cc1`, the percent span result was “inactive”.

On to `COc1ccc(N2C(=O)C(Cl)=C(Oc3cccc(OC)c3)C2=O)cc1`, for which the percent span result is “inactive”.

As to `CCN(CC)c1ccc(NC2=C(Cl)C(=O)c3ccccc3C2=O)cc1`, the percent span result is “inactive”.

With `COc1ccc(CC(=O)Nc2ccc(C(=O)Nc3nccs3)cc2)cc1OC`, the percent span entry was “inactive”.

For the molecule `c1ccc(Nc2nc(-c3ccncc3)cs2)cc1`, the percent span entry is “inactive”.

Consider `Cc1ccc(C)c(/C=C/C(=O)c2ccccc(=O)c2O)c1`, for which the percent span entry was “inactive”.

With `CC1(C)CC(=O)C(C=NCCN2CCN(CCc3ccccc3)CC2)=C(O)C1`, the percent span result was “inactive”.

For `CCCOc1ccc(-c2c(C(=O)N/N=C/c3ccc(OC)cc3)nnn2-c2nonc2N)cc1`, the percent span result is “inactive”.

In the case of `COc1ccc(NC(=O)c2cc(-c3ccc(C)o3)nc3ccccc23)cc1OC`, the percent span result was “inactive”.

For `COc1cc2[nH]c(=S)nc(NCCCOC(C)C)c2cc1OC`, the percent span entry is “inactive”.

Turning to `O=C(c1ccc(CNS(=O)(=O)c2ccc(Br)cc2)cc1)N1CCCC1`, the percent span result was “inactive”.

For the molecule `CC(/C=C/C(=O)c1ccc(C)cc1)=C\c1ccccc1`, the percent span result was “inactive”.

On to `Cc1ccc(NC2=C(NC(=O)c3ccccc3)C(=O)c3ccccc3C2=O)cc1Cl`, for which the percent span result was “inactive”.

Regarding `COc1ccc(C(=O)NC(=S)N2CCNC(=O)C2)cc1Br`, the percent span result is “inactive”.

Turning to `O=C(Nc1ccccn1)c1cc2ccccc2o1`, the percent span entry was “inactive”.

Turning to `CCN1CCN(c2cc(C)c3cc(NC(=S)N4CCN(c5ccccc5)CC4)ccc3n2)CC1`, the percent span entry is “inactive”.

As for `CC1=CC(=O)c2ccccc2C1=O`, the percent span entry was “inactive”.

In the case of `CCCn1c(N2CCN(C)CC2)nc2c1c(=O)[nH]c(=O)n2C`, the percent span entry is “inactive”.

Consider `CC(NCc1ccc(-c2ccccc2)cc1)C(O)c1ccccc1` (stereo unspecified), for which the percent span entry was “inactive”.

As for `CC(C)CCN1CCN(Cc2cccc3cccnc23)CC1CCO` (stereo unspecified), the percent span result is “inactive”.

For `Cc1onc(-c2ccccc2)c1C(=O)Nc1nnc(COc2ccc(Cl)cc2)s1`, the percent span entry was “inactive”.

As for `Cc1cc(Cl)c(S(=O)(=O)NCC2CCCO2)cc1OCC(N)=O` (stereo unspecified), the percent span result was “inactive”.

With `CCN1CCN(c2cc(C)c3cc(NC(=S)N4CCN(c5ccc(F)cc5)CC4)ccc3n2)CC1`, the percent span entry was “inactive”.

On to `CCc1ccc(/C=C/C(=O)c2cc(Br)ccc(=O)c2O)cc1`, for which the percent span result is “inactive”.

`CCOc1ccccc1/C=N/NC(=O)CNC(=O)COc1ccccc1`: the percent span result is “inactive”.

As to `Cc1cc(C)nc(SCc2cc(=O)c(OC(=O)c3cccc([N+](=O)[O-])c3)co2)n1`, the percent span result is “inactive”.

For `COc1ccc(Cc2c(O)nc(SC)n(C(C)=O)c2=O)cc1`, the percent span result is “inactive”.

With `Nc1ccc(Nc2nc(-c3ccncc3)cs2)cc1`, the percent span entry is “inactive”.

Take `CN(CCc1ccccn1)C(=O)CCC1CCCN(C(=O)NC2CCCCC2)C1` (stereo unspecified): the percent span entry was “inactive”.

On to `COc1ccc(N2C(=O)C(Cl)=C(Nc3c(C)n(C)n(-c4ccccc4)c3=O)C2=O)cc1`, for which the percent span entry is “inactive”.

Take `COc1ccc(C(=S)N2CCCCCC2)cc1`: the percent span result was “inactive”.

As for `CCOc1ccccc1C(=O)NC1CC2CCCC(C1)N2C1CC1` (stereo unspecified), the percent span entry is “inactive”.

Turning to `CNc1ccc(Br)cc(C(=O)/C=C/c2ccc(OC)cc2OC)c1=O`, the percent span result was “inactive”.

As for `Cc1ccc(/C=C/C(=O)Nc2ccc([N+](=O)[O-])c(NC(=O)/C=C/c3ccc(C)o3)c2)o1`, the percent span result was “inactive”.

For the molecule `Cc1cc(C)c[n+](-c2nc3ccccc3nc2C(=C=[N-])C#N)c1`, the percent span entry is “inactive”.

Turning to `Cc1cc(C)nc(/N=c2/ssnc2Cl)c1`, the percent span entry is “inactive”.

For `NCC(c1ccccc1)c1c[nH]c2ccccc12` (stereo unspecified), the percent span result is “inactive”.

On to `CN(Cc1ccccc1)C(=O)c1[nH]cnc1C(=O)N[C@@H](CCCCNC(=O)OC(C)(C)C)C(=O)OC(C)(C)C`, for which the percent span entry was “inactive”.

`CCOC(=O)c1nc(Nc2ccc(N3CCC(C)CC3)cc2)c2ccccc2n1`: the percent span entry is “inactive”.

Take `CCOC(=O)C1=C(CP(=O)(c2ccccc2)c2ccccc2)NC(=O)NC1c1ccc(OC)cc1` (stereo unspecified): the percent span result was “inactive”.

`C#CCOCCOCCOCCNc1nc(N2CCN(C(=O)[C@H](CCCCN)n3cc(CCCC)nn3)CC2)nc(N2CCN(C(=O)[C@H](Cc3ccc(O)cc3)n3cc(CCO)nn3)CC2)n1`: the percent span entry was “inactive”.

For `O=c1c2c(n3nnnc3n1Cc1ccccc1)-c1ccccc1CC21CCCC1`, the percent span entry was “inactive”.

In the case of `Cc1ccc(NC(=S)N2CCn3cccc3C2c2cccnc2)cc1` (stereo unspecified), the percent span entry is “inactive”.

With `CCCCC(C(=O)OCC)C(N)Cc1ccc(F)cc1` (stereo unspecified), the percent span result is “inactive”.

For `Cc1cccc(N2C(S)=C(C#N)C(=O)NC2c2cccs2)c1` (stereo unspecified), the percent span result was “inactive”.

Consider `Cc1nc(NC(=O)CC(C)C)sc1-c1csc(Nc2ccc(Cl)cc2)n1`, for which the percent span entry is “inactive”.

For `OCCN1CCN(CCCc2c3c(cc4c2CCC4)CCC3)CC1`, the percent span entry is “inactive”.

In the case of `CN1CCc2cccc3c2[C@H]1Cc1ccc(O)c(O)c1-3`, the percent span entry was “inactive”.
